# Tests used:
# [1] = biological target: T1, Human Calpain 1/NS1 (Homo sapiens, UniProt P07384); assay: Calpain inhibition continuous fluorescence (FRET) assay, Human Calpain 1/NS1; format: biochemical; settings: Column A; read-out: Human Calpain 1/NS1 IC50
# T1 sequence (P07384 1-714): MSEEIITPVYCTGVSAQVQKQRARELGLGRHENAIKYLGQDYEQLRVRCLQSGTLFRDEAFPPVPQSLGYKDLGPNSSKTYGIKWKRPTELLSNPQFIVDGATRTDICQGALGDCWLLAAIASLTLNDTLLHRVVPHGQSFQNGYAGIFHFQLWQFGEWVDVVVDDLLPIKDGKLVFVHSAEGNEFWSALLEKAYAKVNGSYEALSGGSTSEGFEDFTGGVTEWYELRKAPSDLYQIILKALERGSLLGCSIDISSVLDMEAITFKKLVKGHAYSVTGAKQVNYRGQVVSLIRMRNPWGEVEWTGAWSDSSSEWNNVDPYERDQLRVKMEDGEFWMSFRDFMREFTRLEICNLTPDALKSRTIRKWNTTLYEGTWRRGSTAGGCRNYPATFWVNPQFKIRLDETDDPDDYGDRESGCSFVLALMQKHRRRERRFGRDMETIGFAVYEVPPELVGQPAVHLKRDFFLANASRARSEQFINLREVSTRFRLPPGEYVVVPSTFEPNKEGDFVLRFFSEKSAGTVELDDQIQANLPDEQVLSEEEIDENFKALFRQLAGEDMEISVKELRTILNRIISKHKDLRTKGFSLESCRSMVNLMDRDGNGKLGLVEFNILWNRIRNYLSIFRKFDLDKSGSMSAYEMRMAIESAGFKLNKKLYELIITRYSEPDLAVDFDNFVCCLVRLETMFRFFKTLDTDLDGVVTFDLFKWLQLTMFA
# T1 sequence (P04632 1-268 partner): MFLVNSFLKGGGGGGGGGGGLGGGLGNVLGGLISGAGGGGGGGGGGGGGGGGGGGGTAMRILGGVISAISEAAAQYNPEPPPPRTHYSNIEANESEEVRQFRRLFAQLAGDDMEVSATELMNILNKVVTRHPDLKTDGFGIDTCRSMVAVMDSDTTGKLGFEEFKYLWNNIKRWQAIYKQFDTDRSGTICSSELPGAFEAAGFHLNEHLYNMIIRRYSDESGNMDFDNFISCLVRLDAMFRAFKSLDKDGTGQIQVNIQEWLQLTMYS
# Procedure, shortened: (§1)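 Buffer 50 mM Tris pH 7.5/100 mM NaCl/1 mM DTT; enzyme + cpd preinc 25C; start w/ FRET substrate + CaCl2; kinetic 490/520 nm, 10 min; slopes 1-5 min; 4-PL IC50.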
# [2] = biological target: T2, Human Calpain 2/NS1 (Homo sapiens, UniProt P17655); assay: Calpain inhibition continuous fluorescence (FRET) assay, Human Calpain 2/NS1; format: biochemical; settings: Column B; read-out: Human Calpain 2/NS1 IC50
# T2 sequence (P17655 1-700): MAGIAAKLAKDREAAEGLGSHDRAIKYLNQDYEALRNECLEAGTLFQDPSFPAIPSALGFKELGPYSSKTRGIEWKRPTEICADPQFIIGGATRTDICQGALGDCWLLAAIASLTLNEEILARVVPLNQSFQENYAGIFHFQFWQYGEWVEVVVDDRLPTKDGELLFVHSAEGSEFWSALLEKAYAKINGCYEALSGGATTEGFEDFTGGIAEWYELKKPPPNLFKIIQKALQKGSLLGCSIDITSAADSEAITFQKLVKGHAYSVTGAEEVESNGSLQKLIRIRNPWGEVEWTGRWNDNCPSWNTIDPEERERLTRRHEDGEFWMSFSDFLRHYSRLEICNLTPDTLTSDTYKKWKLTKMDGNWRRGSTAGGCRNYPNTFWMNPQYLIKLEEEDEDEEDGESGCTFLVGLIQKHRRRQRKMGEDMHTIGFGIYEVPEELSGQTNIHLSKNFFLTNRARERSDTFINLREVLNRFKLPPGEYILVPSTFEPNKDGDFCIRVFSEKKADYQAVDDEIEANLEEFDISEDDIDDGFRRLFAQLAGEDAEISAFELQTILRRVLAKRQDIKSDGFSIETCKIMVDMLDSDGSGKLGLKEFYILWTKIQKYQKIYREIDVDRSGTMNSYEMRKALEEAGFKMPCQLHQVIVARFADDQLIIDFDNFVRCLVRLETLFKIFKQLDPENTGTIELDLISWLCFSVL
# T2 sequence (P04632 1-268 partner): T1 sequence (P04632 1-268 partner)
# Procedure, shortened: as §1
# [3] = biological target: T3, Human Calpain 9/NS1 (Homo sapiens, UniProt O14815); assay: Calpain inhibition continuous fluorescence (FRET) assay, Human Calpain 9/NS1; format: biochemical; settings: Column C; read-out: Human Calpain 9/NS1 IC50
# T3 sequence (O14815 1-690): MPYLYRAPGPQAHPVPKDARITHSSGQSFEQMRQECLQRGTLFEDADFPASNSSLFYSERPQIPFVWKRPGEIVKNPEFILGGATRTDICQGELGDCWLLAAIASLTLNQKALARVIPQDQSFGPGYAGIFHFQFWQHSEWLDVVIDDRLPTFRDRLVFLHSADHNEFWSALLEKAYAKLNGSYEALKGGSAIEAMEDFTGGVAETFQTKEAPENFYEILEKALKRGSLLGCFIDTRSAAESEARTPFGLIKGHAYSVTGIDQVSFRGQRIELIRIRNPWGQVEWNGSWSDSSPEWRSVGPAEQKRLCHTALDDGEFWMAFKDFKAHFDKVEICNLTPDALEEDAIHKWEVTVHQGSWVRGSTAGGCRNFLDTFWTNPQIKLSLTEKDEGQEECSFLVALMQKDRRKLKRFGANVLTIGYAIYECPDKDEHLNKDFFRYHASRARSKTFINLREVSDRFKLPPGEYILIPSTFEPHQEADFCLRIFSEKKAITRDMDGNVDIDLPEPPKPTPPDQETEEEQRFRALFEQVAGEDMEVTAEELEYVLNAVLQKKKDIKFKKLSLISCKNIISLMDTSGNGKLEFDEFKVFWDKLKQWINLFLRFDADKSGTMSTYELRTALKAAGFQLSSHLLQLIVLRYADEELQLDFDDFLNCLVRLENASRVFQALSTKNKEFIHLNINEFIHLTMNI
# T3 sequence (P04632 1-268 partner): T1 sequence (P04632 1-268 partner)
# Procedure, shortened: as §1
# [4] = system: Calpain activity in SH-SY5Y cells (SBDP-150); assay: SH-SY5Y Spectrin western blot assay (SBDP-150 breakdown product, A23187-induced); format: cell-based; settings: Homo sapiens; Column D; SH-SY5Y cells, A23187-induced SBDP-150; read-out: SH-SY5Y Spectrin IC50
# [5] = system: Calpain activity in SH-SY5Y cells; assay: SH-SY5Y + AMC fluorescence assay (Suc-LLVY-AMC substrate); format: cell-based; settings: Column E, read-out: SH-SY5Y + AMC IC50
IC50 [1] [µM],IC50 [2] [µM],IC50 [3] [µM],IC50 [4] [µM],IC50 [5] [µM],SMILES
< 3,< 3,< 3,< 10,> 25,"Cc1cccc(-c2c(C(=O)N[C@@H](Cc3ccccc3)C(=O)C(N)=O)cnn2C)c1 [Compound 172, (S)—N-(4-amino-3,4-dioxo-1-phenylbutan-2-yl)-1-methyl-5-(m-tolyl)-1H-pyrazole-4-carboxamide]"
< 3,< 3,< 3,> 25,> 25,"Cn1cc(C(=O)N[C@@H](Cc2ccccc2)C(=O)C(N)=O)c(-c2cncnc2)n1 [Compound 173, (S)—N-(4-amino-3,4-dioxo-1-phenylbutan-2-yl)-1-methyl-3-(pyrimidin-5-yl)-1H-pyrazole-4-carboxamide]"
< 3,< 3,< 3,> 25,> 25,Cn1ncc(C(=O)N[C@@H](Cc2ccccc2)C(=O)C(N)=O)c1-c1cnccn1 [Compound 174]
< 3,< 3,< 3,> 25,< 10,"Cn1ncc(C(=O)N[C@@H](Cc2ccccc2)C(=O)C(N)=O)c1-c1ccncn1 [Compound 175, (S)—N-(4-amino-3,4-dioxo-1-phenylbutan-2-yl)-1-methyl-5-(pyrimidin-4-yl)-1H-pyrazole-4-carboxamide]"
< 3,< 3,< 3,10 to 25,< 10,"COc1cccc(-c2nn(C)cc2C(=O)N[C@@H](Cc2ccccc2)C(=O)C(N)=O)c1 [Compound 177, (S)—N-(4-amino-3,4-dioxo-1-phenylbutan-2-yl)-3-(3-methoxyphenyl)-1-methyl-1H-pyrazole-4-carboxamide]"
< 3,< 3,< 3,< 10,< 10,"Cn1cc(C(=O)N[C@@H](Cc2ccccc2)C(=O)C(N)=O)c(-c2cccc(F)c2)n1 [Compound 178, (S)—N-(4-amino-3,4-dioxo-1-phenylbutan-2-yl)-3-(3-fluorophenyl)-1-methyl-1H-pyrazole-4-carboxamide]"
< 3,< 3,< 3,10 to 25,> 25,"Cn1cc(C(=O)N[C@@H](Cc2ccccc2)C(=O)C(N)=O)c(-c2ccc(F)cc2)n1 [Compound 179, (S)—N-(4-amino-3,4-dioxo-1-phenylbutan-2-yl)-3-(4-fluorophenyl)-1-methyl-1H-pyrazole-4-carboxamide]"
< 3,< 3,< 3,< 10,10 to 25,"CC(C)c1cccc(-c2nn(C)cc2C(=O)N[C@@H](Cc2ccccc2)C(=O)C(N)=O)c1 [Compound 180, (S)—N-(4-amino-3,4-dioxo-1-phenylbutan-2-yl)-3-(3-isopropylphenyl)-1-methyl-1H-pyrazole-4-carboxamide]"
< 3,< 3,< 3,< 10,< 10,"Cn1cc(C(=O)N[C@@H](Cc2ccccc2)C(=O)C(N)=O)c(-c2ccccc2F)n1 [Compound 181, (S)—N-(4-amino-3,4-dioxo-1-phenylbutan-2-yl)-3-(2-fluorophenyl)-1-methyl-1H-pyrazole-4-carboxamide]"
< 3,< 3,< 3,10 to 25,< 10,"CCc1cccc(-c2nn(C)cc2C(=O)N[C@@H](Cc2ccccc2)C(=O)C(N)=O)c1 [Compound 182, (S)—N-(4-amino-3,4-dioxo-1-phenylbutan-2-yl)-3-(3-ethylphenyl)-1-methyl-1H-pyrazole-4-carboxamide]"
< 3,< 3,< 3,< 10,10 to 25,"Cn1cc(C(=O)N[C@@H](Cc2ccccc2)C(=O)C(N)=O)c(-c2cccc(C(F)(F)F)c2)n1 [Compound 183, (S)—N-(4-amino-3,4-dioxo-1-phenylbutan-2-yl)-1-methyl-3-(3-(trifluoromethyl)phenyl)-1H-pyrazole-4-carboxamide]"
> 10,3 to 10,3 to 10,> 25,> 25,"Cn1cc(C(=O)N[C@@H](Cc2ccccc2)C(=O)C(N)=O)c(-c2cccc(C#N)c2)n1 [Compound 185, (S)—N-(4-amino-3,4-dioxo-1-phenylbutan-2-yl)-3-(3-cyanophenyl)-1-methyl-1H-pyrazole-4-carboxamide]"
3 to 10,3 to 10,3 to 10,> 25,> 25,"Cn1cc(C(=O)N[C@@H](Cc2ccccc2)C(=O)C(N)=O)c(-c2cccc(C3CC3)c2)n1 [Compound 186, (S)—N-(4-amino-3,4-dioxo-1-phenylbutan-2-yl)-3-(3-cyclopropylphenyl)-1-methyl-1H-pyrazole-4-carboxamide]"
< 3,< 3,< 3,10 to 25,> 25,"Cn1cc(C(=O)N[C@@H](Cc2ccccc2)C(=O)C(N)=O)c(-c2cccc(Cl)c2)n1 [Compound 187, (S)—N-(4-amino-3,4-dioxo-1-phenylbutan-2-yl)-3-(3-chlorophenyl)-1-methyl-1H-pyrazole-4-carboxamide]"
< 3,< 3,< 3,10 to 25,> 25,"Cn1cc(C(=O)N[C@@H](Cc2ccccc2)C(=O)C(N)=O)c(-c2cccnc2)n1 [Compound 188, (S)—N-(4-amino-3,4-dioxo-1-phenylbutan-2-yl)-1-methyl-3-(pyridin-3-yl)-1H-pyrazole-4-carboxamide]"

# — patent US11339130B1 (Blade Therapeutics, Inc., priority 2016, dated 2022)
